“Also recorded” adds a separate entry of the source.
Biological target: GroEL/GroES (Escherichia coli, UniProt P0A6F5)
Assay: Thermofluor (DSF) unfolding of equimolar GroEL/GroES with adenine nucleotides
Assay type: binding
Details: in the presence of the nucleotide
Text: In a next proof of principle for the validity of the method according to the present invention, it has been determined whether thermal unfolding was suitable to find small molecules, which stabilize molecular machines similarly as has been documented for single-domain proteins (Ericsson et al. 2006, Analytical Biochemistry, 357:289-298). For this the GroEL/GroES (homo-tetradecameric 800 kDa and homo-heptameric 70 kDa, respectively) chaperonin system has been analysed. Two important properties of the chaperonin system have been well documented in the literature (Sigler et al., 1998, Annual Reviews in Biochemistry, 67:581-608; Tang et al., 2006, Cell, 125:908-914). First, GroEL forms a double heptameric ring structure, which exposes hydrophobic residues on one face, where non-native substrate protein can bind. Second, the binding of adenine-nucleotides to GroEL induces a conformational change, which causes the previously exposed hydrophobic residues to be buried and is essential for GroES binding to one face of the GroEL double ring. Therefore, measurements according to the present invention of an equimolar GroEL/GroES should yield a high initial fluorescence owing to the solvent-exposed hydrophobic residues, which gradually decreases upon temperature ramping. […]

Sequence of GroEL/GroES (P0A6F9 whole entry): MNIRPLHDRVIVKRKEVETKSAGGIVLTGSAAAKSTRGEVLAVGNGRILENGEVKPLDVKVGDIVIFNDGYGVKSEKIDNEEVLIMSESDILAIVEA
Sequence of GroEL/GroES (P0A6F5 2-548): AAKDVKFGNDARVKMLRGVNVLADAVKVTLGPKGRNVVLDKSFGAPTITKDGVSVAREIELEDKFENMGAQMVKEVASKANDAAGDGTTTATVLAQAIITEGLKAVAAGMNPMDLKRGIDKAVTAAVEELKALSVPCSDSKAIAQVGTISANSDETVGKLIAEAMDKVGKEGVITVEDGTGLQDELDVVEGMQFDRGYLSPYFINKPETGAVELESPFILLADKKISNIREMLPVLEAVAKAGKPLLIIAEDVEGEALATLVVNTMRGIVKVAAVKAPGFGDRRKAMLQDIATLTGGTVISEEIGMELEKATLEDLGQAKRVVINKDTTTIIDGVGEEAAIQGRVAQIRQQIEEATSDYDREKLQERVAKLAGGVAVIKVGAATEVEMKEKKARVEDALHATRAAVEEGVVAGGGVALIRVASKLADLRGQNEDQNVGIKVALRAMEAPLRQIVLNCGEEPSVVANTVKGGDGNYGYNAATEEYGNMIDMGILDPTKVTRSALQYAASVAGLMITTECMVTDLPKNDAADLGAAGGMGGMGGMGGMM

SMILES | unfolding transition of GroEL/GroES (complex formation)
Nc1ncnc2c1ncn2[C@@H]1O[C@H](COP(=O)(O)OP(=O)(O)OP(=O)(O)O)[C@@H](O)[C@H]1O [ATP] | complexes are formed; also recorded: single—apparent two-state—unfolding transition
Nc1ncnc2c1ncn2[C@H]1C[C@H](O)[C@@H](COP(=O)(O)OP(=O)(O)OP(=O)(O)O)O1 [dATP] | complexes are formed; also recorded: single—apparent two-state—unfolding transition

— patent US9366677B2, “Methods for analyzing biological macromolecular complexes and use thereof” (Max-Planck-Gesellshaft zur Foerderung der Wissenschaften …, priority 2011, dated 2016)
